Entries after “also recorded” stand apart in the source; their conditions may differ.
How the values were obtained:
[1] = test system: hSR-transfected CHO-K1 cells; assay: Antagonist cAMP response (coincubation with hSCT, HTRF-LANCE cAMP assay); assay type: cell-based, human; settings: Table 4; cAMP response with 5 nM hSCT plus analog 10^-12 to 10^-6 M, 30 min
Description: Detection was subsequently performed according to the manufacturer’s instructions.
(§1) All in vitro results were analyzed in quadruplicate, and the data are expressed as the means ± SEM. Significant differences were identified using Student’s t-test at p<0.05. The dose response was analyzed using GraphPad Prism 5.0 software with a variable slope (four parameters).

[2] = test system: hSR-transfected CHO-K1 cells; assay: Agonist cAMP response (HTRF-LANCE cAMP assay); assay type: cell-based, human; settings: for Agonistic response: Table 4, cAMP response at various doses
Description: The cAMP responses in hSR-transfected CHO-K1 cells were detected using the HTRF-LANCE® cAMP assay kit. After 48 h of transfection, the cells were detached by nonenzymatic treatment using Versene. The cells were counted and processed according to the manufacturer’s instructions to measure the cAMP response following cell treatment with the secretin analogs. hSCT was used as a positive control. The TRF signals (340 nm excitation/665 nm emission) were detected using a VICTOR X4 spectrofluorometer (PerkinElmer), and the cAMP concentration was determined using a standard curve.
as §1

[3] = target: human secretin receptor (human) (UniProt P47872); assay: FRET or BRET; competitive binding, dose response 10^-12 M to 10^-4 M of unlabelled peptide against 500 nM labelled hSCT on CHO-K1 cells with Lumi4-Tb-labelled SNAPtag-hSR, 4–8°C, 1 h; nonspecific signal with 100 μM unlabelled hSCT subtracted; four-parameter fit
Sequence of human secretin receptor (human) (P47872 23-440): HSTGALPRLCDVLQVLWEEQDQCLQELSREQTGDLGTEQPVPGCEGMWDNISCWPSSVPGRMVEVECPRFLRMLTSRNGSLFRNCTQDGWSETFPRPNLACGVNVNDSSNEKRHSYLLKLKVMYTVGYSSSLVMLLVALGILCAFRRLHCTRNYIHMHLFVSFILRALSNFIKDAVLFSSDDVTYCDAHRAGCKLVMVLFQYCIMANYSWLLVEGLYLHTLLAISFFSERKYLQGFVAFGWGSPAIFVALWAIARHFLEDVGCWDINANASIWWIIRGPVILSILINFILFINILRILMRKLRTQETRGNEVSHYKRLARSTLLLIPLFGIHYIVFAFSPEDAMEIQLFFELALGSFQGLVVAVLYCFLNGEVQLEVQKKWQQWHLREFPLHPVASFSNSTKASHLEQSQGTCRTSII

[4] = target: SNAPtag-hSR (human secretin receptor) in transfected CHO-K1 cells (Homo sapiens, UniProt P47872); assay: FRET competitive binding assay
Sequence of SNAPtag-hSR (human secretin receptor) in transfected CHO-K1 cells (P47872 23-440): as above

IC50 [3] | in vitro binding to hSR (in words) [4] | Molecule | Antagonistic response [1] | Agonistic response [2] | agonist activity at hSR, cAMP (in words) [2]
 |  | H2N-Leu-Ser-Asp-Gly-Thr-Phe-Thr-Ser-Glu-Leu-Ser-Arg-Leu-Arg-Glu-Gly-Ala-Arg-Leu-Gln-Arg-Leu-Leu-Gln-Gly-Leu-Val- COOH [Analog 3, h[Leu^1]SCT] | Absent | Absent | 
 |  | H2N-His-Ser-D-Asp-Gly-Thr-Phe-Thr-Ser-Glu-Leu-Ser-Arg-Leu-Arg-Glu-Gly-Ala-Arg-Leu-Gln-Arg-Leu-Leu-Gln-Gly-Leu-Val- COOH [Analog 8, h[D-Asp^3]SCT] | Absent | Absent | 
 |  | H2N-Arg-Glu-Gly-Ala-Arg-Leu-Gln-Arg-Leu-Leu-Gln-Gly-Leu-Val- COOH [Analog 20, Ct-SCT] | Absent | Absent | 
 |  | H2N-His-Ser-Asp-Pro-Thr-Phe-Thr-Ser-Glu-Leu-Ser-Arg-Leu-Arg-Glu-Gly-Ala-Arg-Leu-Gln-Arg-Leu-Leu-Gln-Gly-Leu-Val- COOH [Analog 13, h[Pro^4]SCT] | Absent | Absent | 
 |  | H2N-His-Ser-Asp-Tyr-Thr-Phe-Thr-Ser-Glu-Leu-Ser-Arg-Leu-Arg-Glu-Gly-Ala-Arg-Leu-Gln-Arg-Leu-Leu-Gln-Gly-Leu-Val- COOH [Analog 14, h[Tyr^4]SCT] | Absent | Absent | 
 |  | H2N-His-Ser-pCO2HPhe-Gly-Thr-Phe-Thr-Ser-Glu-Leu-Ser-Arg-Leu-Arg-Glu-Gly-Ala-Arg-Leu-Gln-Arg-Leu-Leu-Gln-Gly-Leu-Val- COOH [Analog 11, h[pCO2H-Phe^3]SCT] | Absent | Absent | 
 |  | H2N-Phe-Thr-Ser-Glu-Leu-Ser-Arg-Leu-Arg-Glu-Gly-Ala-Arg-Leu-Gln-Arg-Leu-Leu-Gln-Gly-Leu-Val- COOH [Analog 6, hSCT(6–27)] | Absent | Absent | 
 |  | human vasoactive peptide [hVIP, reference compound] |  |  | could also activate hSR to produce cAMP; also recorded: only at high concentrations
 |  | CC(C)C[C@H](NC(=O)CNC(=O)[C@H](CCC(N)=O)NC(=O)[C@H](CC(C)C)NC(=O)[C@H](CC(C)C)NC(=O)[C@H](CCCNC(=N)N)NC(=O)[C@H](CCC(N)=O)NC(=O)[C@H](CC(C)C)NC(=O)[C@H](CCCNC(=N)N)NC(=O)[C@H](C)NC(=O)[C@H](CO)NC(=O)[C@H](CC(=O)O)NC(=O)[C@H](CCC(N)=O)NC(=O)[C@H](CC(C)C)NC(=O)[C@H](CCCNC(=N)N)NC(=O)[C@H](CO)NC(=O)[C@H](CC(C)C)NC(=O)[C@H](CCC(=O)O)NC(=O)[C@H](CO)NC(=O)[C@@H](NC(=O)[C@H](Cc1ccccc1)NC(=O)[C@@H](NC(=O)CNC(=O)[C@H](CC(=O)O)NC(=O)[C@H](CO)NC(=O)[C@@H](N)Cc1c[nH]cn1)[C@@H](C)O)[C@@H](C)O)C(=O)N[C@H](C(=O)O)C(C)C [Analog 15, Rat SCT] | Absent | Present | agonist
 |  | H2N-His-Ser-Asp-Cha-Thr-Phe-Thr-Ser-Glu-Leu-Ser-Arg-Leu-Arg-Glu-Gly-Ala-Arg-Leu-Gln-Arg-Leu-Leu-Gln-Gly-Leu-Val- COOH [Analog 7, h[Cha^4]SCT] | Absent | Absent | 
1.63 nM |  | human secretin (peptide) |  |  | 
 |  | H2N-Cit-Ser-Asp-Gly-Thr-Phe-Thr-Ser-Glu-Leu-Ser-Arg-Leu-Arg-Glu-Gly-Ala-Arg-Leu-Gln-Arg-Leu-Leu-Gln-Gly-Leu-Val- COOH [Analog 10, h[Cit^1]SCT] | Absent | Absent | 
 |  | H2N-His-Ser-Asp-D-allyl,Gly-Thr-Phe-Thr-Ser-Glu-Leu-Ser-Arg-Leu-Arg-Glu-Gly-Ala-Arg-Leu-Gln-Arg-Leu-Leu-Gln-Gly-Leu-Val- COOH [Analog 5, h[(D-allyl,Gly^4]SCT] | Absent | Absent | 
 |  | H2N-Tic-Ser-Asp-Gly-Thr-Phe-Thr-Ser-Glu-Leu-Ser-Arg-Leu-Arg-Glu-Gly-Ala-Arg-Leu-Gln-Arg-Leu-Leu-Gln-Gly-Leu-Val- COOH [Analog 9, h[Tic^1]SCT] | Absent | Absent | 
 |  | H2N-Orn-Ser-Asp-Gly-Thr-Phe-Thr-Ser-Glu-Leu-Ser-Arg-Leu-Arg-Glu-Gly-Ala-Arg-Leu-Gln-Arg-Leu-Leu-Gln-Gly-Leu-Val- COOH [Analog 12, h[Orn^1]SCT] | Absent | Absent | 
 |  | CC(C)C[C@H](NC(=O)CNC(=O)[C@H](CCC(N)=O)NC(=O)[C@H](CC(C)C)NC(=O)[C@H](CC(C)C)NC(=O)[C@H](CCCNC(=N)N)NC(=O)[C@H](CCC(N)=O)NC(=O)[C@H](CC(C)C)NC(=O)[C@H](CCCNC(=N)N)NC(=O)[C@H](C)NC(=O)CNC(=O)[C@H](CCC(=O)O)NC(=O)[C@H](CCCNC(=N)N)NC(=O)[C@H](CC(C)C)NC(=O)[C@H](CCCNC(=N)N)NC(=O)[C@H](CO)NC(=O)[C@H](CC(C)C)NC(=O)[C@H](CCC(=O)O)NC(=O)[C@H](CO)NC(=O)[C@@H](NC(=O)[C@H](Cc1ccccc1)NC(=O)[C@@H](NC(=O)CNC(=O)[C@H](CC(=O)O)NC(=O)[C@H](CO)NC(=O)[C@@H](N)Cc1c[nH]cn1)[C@@H](C)O)[C@@H](C)O)C(=O)N[C@H](C(=O)O)C(C)C [hSCT, human secretin, reference compound] | Absent | Present | 
 |  | H2N-Ala-Ser-Asp-Gly-Thr-Phe-Thr-Ser-Glu-Leu-Ser-Arg-Leu-Arg-Glu-Gly-Ala-Arg-Leu-Gln-Arg-Leu-Leu-Gln-Gly-Leu-Val- COOH [Analog 2, h[Ala^1]SCT] | Absent | Absent | 
 |  | H2N-His-Val-Asp-Gly-Arg-Phe-Thr-Ser-Glu-Phe-Ser-Arg-Ala-Arg-Gly-Ser-Ala-Ala-Ile-Arg-Lys-Ile-Ile-Asn-Ser-Ala-Leu-Ala- COOH [Analog 16, Xenopus SCT] | Absent | Absent | 
 |  | H2N-His-Pro-Asp-Gly-Thr-Phe-Thr-Ser-Glu-Leu-Ser-Arg-Leu-Arg-Glu-Gly-Ala-Arg-Leu-Gln-Arg-Leu-Leu-Gln-Gly-Leu-Val- COOH [Analog 1, h[Pro^2]SCT] | Absent | Absent | 
 |  | H2N-His-Ser-Asp-Gly-Thr-Phe-Thr-Ser-Glu-Leu-Ser-Arg-Leu- COOH [Analog 19, Nt-SCT] | Absent | Absent | 
 |  | H2N-His-Val-Asp-Gly-Leu-Phe-Thr-Ser-Glu-Leu-Ser-Lys-Leu-Arg-Gly-Ser-Ala-Val-Ala-Arg-Ser-Phe-Thr-Asn-Ala-Val-Leu- COOH [Analog 18, Coelacanths SCT] | Absent | Absent | 
 |  | H2N-His-Ser-Asp-Gly-Leu-Phe-Thr-Ser-Glu-Tyr-Ser-Lys-Met-Arg-Gly-Asn-Ala-Gln-Val-Gln-Lys-Phe-Ile-Gln-Asn-Leu-Met- COOH [Analog 17, Chicken SCT] | Absent | Absent | 
 | only at high concentrations | human pituitary adenylate cyclase-activating polypeptide [hPACAP, reference compound] |  |  | could also activate hSR to produce cAMP; also recorded: only at high concentrations
 |  | H2N-His-Ser-Asp-p-Cl,D-Phe^4-Thr-Phe-Thr-Ser-Glu-Leu-Ser-Arg-Leu-Arg-Glu-Gly-Ala-Arg-Leu-Gln-Arg-Leu-Leu-Gln-Gly-Leu-Val- COOH [Analog 4, h[(p-Cl,D-Phe^4]SCT] | Absent | Absent | 

From publication PMC4773067 (PLoS ONE, 2016)
